Measurements published in patent publication US10570150B2, “6,7-trans cephalosporin-based probes for detecting bacteria expressing a metallo-beta-lactamase” (priority 2014, dated 2020).
Marks after values point to notes of the source that are not given here.

Tests used:
[1] = test system: [H][C@]1(OCC)C(=O)N2C(C(=O)O)=C(COc3ccc4ccc(=O)oc4c3)CS[C@@]21[H]; experiment: purified protein, by the assay type; settings: from Lineweaver-Burk plots
[2] = test system: [H][C@]1(OC)C(=O)N2C(C(=O)O)=C(COc3ccc4ccc(=O)oc4c3)CS[C@@]21[H]; experiment: purified protein, by the assay type; settings: from Lineweaver-Burk plots
[3] = test system: [H][C@]1(OC(C)C)C(=O)N2C(C(=O)O)=C(COc3ccc4ccc(=O)oc4c3)CS[C@@]21[H]; experiment: purified protein, by the assay type; settings: from Lineweaver-Burk plots
[4] = test system: [H][C@]1(OC(C)(C)C)C(=O)N2C(C(=O)O)=C(COc3ccc4ccc(=O)oc4c3)CS[C@@]21[H]; experiment: purified protein, by the assay type; settings: from Lineweaver-Burk plots
[5] = test system: [H][C@]1(OCc2ccccc2)C(=O)N2C(C(=O)O)=C(COc3ccc4ccc(=O)oc4c3)CS[C@@]21[H]; experiment: purified protein, by the assay type; settings: from Lineweaver-Burk plots
[6] = test system: [H][C@]1(OS(=O)(=O)c2ccc(C)cc2)C(=O)N2C(C(=O)O)=C(COc3ccc4ccc(=O)oc4c3)CS[C@@]21[H]; experiment: purified protein, by the assay type; settings: from Lineweaver-Burk plots
BlaC = BlaC (Mycobacterium tuberculosis, UniProt P9WKD3); experiment: Fluorescence of probes after incubation with recombinant BlaC; type: biochemical; settings: BlaC 1 to 200 fmols; probe 10 μM, 25 μL 1×PBS pH 7.4, room temperature, 2 h
Procedure: (§1) The fluorescence of the probes was measured before and after enzyme treatment using enzyme concentrations in the range of about 1 to about 200 fmols. […] CDC-1, a previously reported non-specific probe for β-lactamases employed as a positive control, as described by Xie et al., (2012) J. Nat.

NDM-1 [7] = target: T1, NDM-1 (Klebsiella pneumoniae, UniProt C7C422); type: biochemical, Escherichia coli; settings: probe 10 μM, 2 h; for fluorescence enhancement: NDM-1 1 to 200 fmols, 25 μL 1×PBS pH 7.4, room temperature; for amount of enzyme giving detectable fluorescence: NDM-1
E. coli with IMP-1 = settings: IMP-1-expressing bacteria; 2 h incubation
[8] = Spontaneous hydrolysis of probe in PBS buffer; type: physicochemical; settings: [S]0=20 μM
Description: FIGS. 14A-14G illustrate the spontaneous hydrolysis in buffer of a probe according to the disclosure. FIG. 14A is a schema illustrating the spontaneous hydrolysis of a probe of the disclosure in PBS buffer to release umbelliferone and thereby generate a fluorescent signal. […] Initial concentration of probe, [P]: […] Error bars indicate the standard deviations of three replicate experiments.

IMP-1 [9] = target: T2, IMP-1 (Serratia marcescens, UniProt P52699); type: biochemical, Escherichia coli; settings: probe 10 μM, 2 h; for fluorescence enhancement: IMP-1 1 to 200 fmols, 25 μL 1×PBS pH 7.4, room temperature
KPC-3 [10] = target: T3, KPC-3 (Klebsiella pneumoniae, UniProt Q9F663, H272Y); settings: from Lineweaver-Burk plots
KPC-3 [11] = target: T3, KPC-3; type: biochemical; settings: probe 10 μM, 2 h; for fluorescence enhancement: KPC-3 1 to 200 fmols, 25 μL 1×PBS pH 7.4, room temperature; for amount of enzyme giving detectable fluorescence: KPC-3
VIM-27 [12] = experiment: Kinetic parameters of probes with recombinant VIM-27 (Lineweaver-Burk plots); settings: from Lineweaver-Burk plots
TEM-1 Bla = TEM-1 Bla (Escherichia coli, UniProt P62593); type: biochemical; settings: TEM-1 Bla 1 to 200 fmols; probe 10 μM, 25 μL 1×PBS pH 7.4, room temperature, 2 h
VIM-27 [13] = experiment: Fluorescence of probes after incubation with recombinant VIM-27; type: biochemical, Klebsiella pneumoniae; settings: probe 10 μM, 2 h; for fluorescence enhancement: VIM-27 1 to 200 fmols, 25 μL 1×PBS pH 7.4, room temperature
Procedure: as §1

[14] = test system: non-carbapenemase lactamases; experiment: Hydrolysis of probes by non-carbapenemase lactamases
IMP-1 [15] = target: T2, IMP-1; settings: from Lineweaver-Burk plots
NDM-1 [16] = target: T1, NDM-1; settings: from Lineweaver-Burk plots

Row | Compound | fluorescence enhancement (BlaC) | fluorescence enhancement (NDM-1 [7]) | Spontaneous hydrolysis rate [8] | fluorescence enhancement (IMP-1 [9]) | Km (KPC-3 [10]) [µM] | kcat (KPC-3 [10]) [s⁻¹] | fluorescence enhancement (KPC-3 [11]) | Km (VIM-27 [12]) [µM] | kcat (VIM-27 [12]) [s⁻¹] | fluorescence enhancement (TEM-1 Bla) | fluorescence enhancement (VIM-27 [13]) | also measured
1 | IMP-1 (Serratia marcescens) |  |  |  |  |  |  |  |  |  |  |  | Km ([1]; other: IMP-1): 12.9 ± 1.0 µM; kcat ([1]; other: IMP-1): 16.6 ± 0.1 s⁻¹; kcat/Km ([1]; other: IMP-1): 1.3 × 10^6 s^−1M^−1; Km ([2]; other: IMP-1): 7.8 ± 0.2 µM; kcat ([2]; other: IMP-1): 12.2 ± 0.1 s⁻¹; kcat/Km ([2]; other: IMP-1): 1.6 × 10^6 s^−1M^−1; Km ([3]; other: IMP-1): 3.2 ± 0.07 µM; kcat ([3]; other: IMP-1): 8.0 ± 0.04 s⁻¹; kcat/Km ([3]; other: IMP-1): 2.5 × 10^6 s^−1M^−1; Km ([4]; other: IMP-1): 9.4 ± 1.3 µM; kcat ([4]; other: IMP-1): 2.1 ± 0.01 s⁻¹; kcat/Km ([4]; other: IMP-1): 2.2 × 10^5 s^−1M^−1; Km ([5]; other: IMP-1): 3.6 ± 0.1 µM; kcat ([5]; other: IMP-1): 4.2 ± 0.03 s⁻¹; kcat/Km ([5]; other: IMP-1): 1.2 × 10^6 s^−1M^−1; Km ([6]; other: IMP-1): 3.4 ± 0.4 µM; kcat ([6]; other: IMP-1): 2.2 ± 0.02 s⁻¹; kcat/Km ([6]; other: IMP-1): 6.6 × 10^5 s^−1M^−1
2 | CO[C@H]1C(=O)N2C(C(=O)O)=C(COc3ccc4ccc(=O)oc4c3)CS[C@H]12 [(s)-CC-1, (6R,7S)-7-methoxy-8-oxo-3-(((2-oxo-2H-chromen-7-yl)oxy)methyl)-5-thia-1-azabicyclo[4.2.0.]oct-2-ene-2-carboxylic Acid] | almost no fluorescence enhancement | high fluorescence signals | 7e-08 s⁻¹ | high fluorescence signals | 67.7 ± 4.9 | 1.5 ± 0.05 | high fluorescence signals | 29.2 ± 7 | 1.1 ± 0.1 | almost no fluorescence enhancement | high fluorescence signals | number of bacteria detected / detection limit (E. coli with IMP-1): ≤ 10^4 c.f.u.
3 | NDM-1 (Klebsiella pneumoniae) |  |  |  |  |  |  |  |  |  |  |  | Km ([1]; other: NDM-1): 14.9 ± 2.7 µM; kcat ([1]; other: NDM-1): 0.3 ± 0.01 s⁻¹; kcat/Km ([1]; other: NDM-1): 1.7 × 10^4 s^−1M^−1; Km ([2]; other: NDM-1): 12.0 ± 0.7 µM; kcat ([2]; other: NDM-1): 0.2 ± 0.02 s⁻¹; kcat/Km ([2]; other: NDM-1): 2.0 × 10^4 s^−1M^−1; Km ([3]; other: NDM-1): 6.0 ± 3.5 µM; kcat ([3]; other: NDM-1): 0.1 ± 0.01 s⁻¹; kcat/Km ([3]; other: NDM-1): 2.0 × 10^4 s^−1M^−1; Km ([4]; other: NDM-1): 58.6 ± 16.0 µM; kcat ([4]; other: NDM-1): 0.3 ± 0.04 s⁻¹; kcat/Km ([4]; other: NDM-1): 5.1 × 10^3 s^−1M^−1; Km ([5]; other: NDM-1): 26.7 ± 0.2 µM; kcat ([5]; other: NDM-1): 0.3 ± 0.0 s⁻¹; kcat/Km ([5]; other: NDM-1): 1.0 × 10^4 s^−1M^−1; Km ([6]; other: NDM-1): 4.7 ± 0.3 µM; kcat ([6]; other: NDM-1): 1.9 ± 0.06 s⁻¹; kcat/Km ([6]; other: NDM-1): 4.0 × 10^5 s^−1M^−1
4 | CC(C)(C)O[C@H]1C(=O)N2C(C(=O)O)=C(COc3ccc4ccc(=O)oc4c3)CS[C@H]12 [(s)-CC-4, (6R,7S)-7-(tert-butoxy)-8-oxo-3-(((2-oxo-2H-chromen-7-yl)oxy)methyl)-5-thia-1-azabicyclo[4.2.0]oct-2-ene-2-carboxylic Acid] |  |  | 5.4e-07 s⁻¹ | high specificity for IMP-1 | 121 ± 85 | 0.2 ± 0.1 |  | 91.6 ± 10.1 | 0.2 ± 0.01 |  |  | amount of enzyme giving detectable fluorescence (NDM-1 [7]): about 200 fmol; number of bacteria detected / detection limit (E. coli with IMP-1): about 1×10^5 c.f.u.; hydrolysis by non-carbapenemase lactamases [14]: No hydrolysis
5 | O=C(Cc1ccccc1)N[C@@H]1C(=O)N2C(C(=O)O)=C(COc3ccc4ccc(=O)oc4c3)CS[C@H]12 [CDC-1, reference compound] | positive fluorescence enhancement | positive fluorescence enhancement | 2.4^b ×10^−7s^−1 | positive fluorescence enhancement | 21 ± 1.34 | 35.4 ± 0.04 | positive fluorescence enhancement | 3.8 ± 2.7 | 2.3 ± 0.3 | positive fluorescence enhancement | positive fluorescence enhancement | Km (IMP-1 [15]): 4 ± 0.1 µM; kcat (IMP-1 [15]): 7.9 ± 0.1 s⁻¹; Km (NDM-1 [16]): 5.04 ± 3.2 µM; kcat (NDM-1 [16]): 4.6 ± 0.3 s⁻¹
6 | Cc1ccc(S(=O)(=O)O[C@H]2C(=O)N3C(C(=O)O)=C(COc4ccc5ccc(=O)oc5c4)CS[C@H]23)cc1 [(s)-CC-6, (6R,7S)-8-oxo-3-(((2-oxo-2H-chromen-7-yl)oxy)methyl)-7-(tosyloxy)-5-thia-1-azabicyclo[4.2.0]oct-2-ene-2-carboxylic Acid] |  | fluorescence enhancement | 2.6e-07 s⁻¹ | fluorescence enhancement | 18.7 ± 7.8 | 0.3 ± 0.05 |  | 14.1 ± 1.2 | 3.9 ± 0.1 |  | fluorescence enhancement | amount of enzyme giving detectable fluorescence (NDM-1 [7]): ≤ 1.0 fmol; amount of enzyme giving detectable fluorescence (IMP-1 [9]; IMP-1): ≤ 1.0 fmol; amount of enzyme giving detectable fluorescence (KPC-3 [11]): 200 fmol; amount of enzyme giving detectable fluorescence (VIM-27 [13]; VIM-27): ≤ 1.0 fmol
7 | CCO[C@H]1C(=O)N2C(C(=O)O)=C(COc3ccc4ccc(=O)oc4c3)CS[C@H]12 [(s)-CC-2, (6R,7S)-7-ethoxy-8-oxo-3-(((2-oxo-2H-chromen-7-yl)oxy)methyl)-5-thia-1-azabicyclo[4.2.0]oct-2-ene-2-carboxylic Acid] | almost no fluorescence enhancement | high fluorescence signals | 5.9e-07 s⁻¹ | high fluorescence signals | 39.1 ± 1.3 | 0.3 ± 0.05 | high fluorescence signals | 23 | 0.71 ± 0.0 | almost no fluorescence enhancement | high fluorescence signals | 
8 | O=C(O)C1=C(COc2ccc3ccc(=O)oc3c2)CS[C@@H]2[C@@H](OCc3ccccc3)C(=O)N12 [(s)-CC-5, (6R,7S)-7-(benzyloxy)-8-oxo-3-(((2-oxo-2H-chromen-7-yl)oxy)methyl)-5-thia-1-azabicyclo[4.2.0]oct-2-ene-2-carboxylic Acid] | almost no fluorescence enhancement | high fluorescence signals | 2.7e-07 s⁻¹ | high fluorescence signals | 5.2 ± 0.5 | 1.1 ± 0.01 | high fluorescence signals | 145 ± 100 | 3.4 ± 1.5 | almost no fluorescence enhancement | high fluorescence signals | hydrolysis by non-carbapenemase lactamases [14]: no hydrolysis
9 | CC(C)O[C@H]1C(=O)N2C(C(=O)O)=C(COc3ccc4ccc(=O)oc4c3)CS[C@H]12 [(s)-CC-3, (6R,7S)-7-isopropoxy-8-oxo-3-(((2-oxo-2H-chromen-7-yl)oxy)methyl)-5-thia-1-azabicyclo[4.2.0]oct-2-ene-2-carboxylic Acid] |  | fluorescence enhancement | 4.8e-07 s⁻¹ | fluorescence enhancement | 250 ± 235 | 0.2 ± 0.17 |  | 61.3 ± 8.8 | 0.5 ± 0.04 |  | fluorescence enhancement | amount of enzyme giving detectable fluorescence (KPC-3 [11]): 200 fmol
